This is an account of results in EP3811940B1, “SUBSTITUTED 4,5'-BITHIAZOLES AS INHIBITORS OF THE HUMAN DNA TOPOISOMERASE II” (Kemijski Institut, priority 2019, dated 2021).

For one data set, the target named is T1, human topo IIα (Homo sapiens, UniProt P11388).
T1 construct: purchased Inspiralis (Norwich, UK)
The experiment in a line: HTS relaxation assay of human topo IIα. The format is biochemical. The settings on record: screening at 7.8, 31.5, 125 and 500 µM. As for the experimental part: The 14 selected compounds from the class of substituted 4,5'-bithiazoles were experimentally assayed if they inhibit catalytic activity of human topo IIα using an established high-throughput screening (HTS) relaxation assay for human topo IIα [24].
The HTS assays primarily served to select compounds for further evaluation.
Plate was rehydrated using wash buffer (20 mM Tris-HCl (pH = 7.6), 137 mM NaCl, 0.005 % (w/v) BSA, 0.05 % (v/v) TWEEN-20®) and biotinylated oligonucleotide was immobilized onto the wells. Next, the excess oligonucleotide was washed off with wash buffer. Enzyme assay was carried out in reaction volume of 30 µL using 0.75 µg supercoiled plasmid pNO1 as a substrate and human topo IIα. Enzyme was diluted to the appropriate concentration with dilution buffer comprised of 50 mM Tris-Hcl (pH = 7.5), 100 mM NaCl, 1 mM DTT, 0.5 mM EDTA, 50 % (v/v) glycerol and 50 µg/mL albumin. Tested compounds (0.3 µL) were added as a stock solution in DMSO and final concentration of DMSO was 1 %, respectively. Reactions were incubated at 37 °C for 30 min, and TF buffer (50 mM NaOAc (pH = 5.0), 50 mM NaCl, 50 mM MgCl2) was added to the wells and incubated at room temperature for additional 30 min to allow the triplex biotin-oligonucleotid-plasmid formation. To eliminate the aggregation and non-specific inhibition a surfactant (TWEEN-20®) was added to the reaction mixture. Unbound plasmid was washed off with TF buffer and stained with the DNA-detection Dye in the T10 buffer (10 mM Tris-HCl (pH = 8) and 1 mM EDTA) was added. After mixing, fluorescence was read using Tecan fluorimeter (Excitation: 485 nm and Emission: 535 nm). Screening was performed at the inhibitor concentrations of 7.8, 31.5, 125 and 500 µM. IC50 values were calculated using GraphPad Prism 6.0 software and represent the concentrations of inhibitors where residual activity of the enzyme was 50 % [24].

Data set [1] in a line: solubility in the cell growth media. The format is physicochemical. To be noted: result in words.
In another data set the test system is MCF-7 cells. Briefly: MTS cytotoxicity assay, MCF-7. The format is cell-based, human. The settings on record: for effect on the tested cell lines: initial screening, 24 h, 100 µM for compound 6, 200 µM for 8 and 11, result in words; for EC50: Homo sapiens, interval in brackets. An excerpt: (§1) We determined the cytotoxicity of the tested compounds on human breast cancer MCF-7 and human hepatocellular carcinoma HepG2 cancer cell lines using MTS assay. Both selected human cancer cell lines are representative and well-established systems for cell-based evaluation of potential anticancer compounds. Etoposide was again used as a positive control (PC).
(§2) In the first step we performed the initial screening of compounds 1-14 at one concentration. […] Exponentially growing cells were exposed to all compounds for 24 h and the results are represented in Figure 3A.
(§3) In vitro cytotoxicity of investigated compounds was evaluated in two human cancer cell lines: the […] cell lines. The HepG2 cells (ATCC) were cultivated at 37 °C and 5 % CO2 in MEME medium (M2414, Sigma) supplemented with 10 % FBS, 2 mM L-Glutamine, 1 % NEAA, 2.2 g/L NaHCO3, 1 mM sodium pyruvate and 100 IU/mL penicillin/ streptomycin and MCF-7 (ATCC) were cultivated in Eagle's MEM medium (M5650, Sigma), supplemented with 10 % fetal bovine serum, 2 mM glutamine, and 100 IU/mL penicillin/streptomycin. After the exposure to the tested compounds the viability of HepG2 and MCF-7 cells was determined by MTS tetrazolium reduction assay. The cells were seeded onto 96-well microplates (Nunc, TermoFisher Scientific, Waltham, MA, USA) at densities of 8000 cells per well (HepG2) and 7000 cells per well (MCF-7) in […] growth medium and incubated overnight to attach. The next day, the growth medium was replaced by the fresh complete growth medium containing appropriate concentrations of the compounds. […] Finally, the absorbance was measured at wavelength of 490 nm using a Microplate Reader (Synergy MX, BioTek, Winooski, VT, USA). […] Assay was performed at 5 concentrations of each compound; 2, 25, 50, 100 and 200 µM for compounds 1, 7 and 14 and 1, 12.5, 25, 50, 100 µM for compounds 9 and 10. […] Cell viability was determined by comparing the OD (optical density) of the wells containing the cells treated with investigated compounds with those of solvent control cells and presented as % of cell viability ± SD. Experiments were performed three times independently each time in at least three replicates. EC50 values were calculated by non-linear regression analysis using GraphPad Prism 7.0 Software. Statistical significance between treated groups and the control was determined by One-way analysis of variance and Dunnett's Multiple Comparison Test.
(Tetrazolium assays rely on reduction of a dye to a coloured formazan, in cell work by metabolically active cells.)

For a further data set, the system named is HepG2 cells. The experiment in a line: MTS cytotoxicity assay, HepG2. Type of data set: cell-based, human. To be noted: for effect on the tested cell lines: initial screening, 24 h, 100 µM for compound 6, 200 µM for 8 and 11, result in words; for EC50: Homo sapiens, interval in brackets.
From the text: as §1, §2, §3

The mark [2] stands for this setting: MCF7, read-out: EC50 [µM] MCF-7 (24h), 24h exposure.
Setting [3] is: MCF7, 72h exposure, read-out: EC50 [µM] MCF-7 (72h).
Setting [4] is: HepG2, read-out: EC50 [µM] HepG2 (24h), 24h exposure.
Where [5] appears, read: HepG2, 72h exposure, read-out: EC50 [µM] HepG2 (72h).

Read-outs that look alike come from different tables or passages of the source.

T1 sequence (P11388 whole entry): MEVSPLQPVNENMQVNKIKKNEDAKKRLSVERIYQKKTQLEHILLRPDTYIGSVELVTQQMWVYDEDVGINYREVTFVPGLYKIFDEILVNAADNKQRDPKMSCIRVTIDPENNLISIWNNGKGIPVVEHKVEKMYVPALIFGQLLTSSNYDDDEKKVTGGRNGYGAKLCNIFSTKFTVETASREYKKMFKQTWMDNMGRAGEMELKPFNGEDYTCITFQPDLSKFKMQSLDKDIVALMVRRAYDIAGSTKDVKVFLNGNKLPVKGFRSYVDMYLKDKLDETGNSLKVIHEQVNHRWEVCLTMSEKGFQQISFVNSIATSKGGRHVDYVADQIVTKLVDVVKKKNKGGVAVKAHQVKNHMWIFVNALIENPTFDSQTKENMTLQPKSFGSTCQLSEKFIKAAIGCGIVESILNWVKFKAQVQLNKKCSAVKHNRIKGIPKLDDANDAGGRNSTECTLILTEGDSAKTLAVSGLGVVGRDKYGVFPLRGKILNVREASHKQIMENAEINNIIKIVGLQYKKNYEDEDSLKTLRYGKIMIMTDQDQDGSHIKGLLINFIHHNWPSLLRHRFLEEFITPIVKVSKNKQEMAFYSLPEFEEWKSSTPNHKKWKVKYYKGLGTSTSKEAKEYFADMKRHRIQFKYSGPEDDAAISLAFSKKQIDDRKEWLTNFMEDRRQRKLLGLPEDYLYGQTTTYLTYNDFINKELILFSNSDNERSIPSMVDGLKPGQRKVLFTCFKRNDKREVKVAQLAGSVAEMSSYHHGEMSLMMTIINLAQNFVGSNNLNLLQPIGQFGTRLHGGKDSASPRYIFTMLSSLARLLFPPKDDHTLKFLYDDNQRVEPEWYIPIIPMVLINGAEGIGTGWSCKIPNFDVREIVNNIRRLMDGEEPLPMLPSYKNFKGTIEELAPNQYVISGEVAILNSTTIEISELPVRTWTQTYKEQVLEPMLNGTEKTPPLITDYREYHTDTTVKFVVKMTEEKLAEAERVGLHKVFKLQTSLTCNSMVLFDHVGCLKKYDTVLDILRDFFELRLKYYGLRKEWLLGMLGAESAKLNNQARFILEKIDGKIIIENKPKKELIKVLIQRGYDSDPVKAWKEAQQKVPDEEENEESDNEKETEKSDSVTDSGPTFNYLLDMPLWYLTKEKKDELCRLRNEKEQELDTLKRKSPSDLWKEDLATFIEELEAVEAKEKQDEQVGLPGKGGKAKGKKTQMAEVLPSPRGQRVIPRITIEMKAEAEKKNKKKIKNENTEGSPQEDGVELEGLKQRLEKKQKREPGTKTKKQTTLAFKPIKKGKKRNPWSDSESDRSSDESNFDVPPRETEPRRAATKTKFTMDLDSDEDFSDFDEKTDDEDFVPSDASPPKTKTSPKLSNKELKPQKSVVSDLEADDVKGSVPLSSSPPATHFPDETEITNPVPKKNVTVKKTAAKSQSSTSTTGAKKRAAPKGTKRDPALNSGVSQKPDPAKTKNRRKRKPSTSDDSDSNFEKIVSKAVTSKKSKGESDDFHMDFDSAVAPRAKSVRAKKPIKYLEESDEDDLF

One may read the IC50 as the point on the concentration scale where inhibition reaches its midpoint. At human topo IIα, `Cc1cc(O)ccc1Nc1nc(-c2sc(N)nc2C)cs1` [Compound 2, 4-((2'-amino-4'-methyl-[4,5'-bithiazol]-2-yl)amino)-3-methylphenol] returned an IC50 of 35.8 µM.

As to `CC(=O)c1ccc(Nc2nc(-c3sc(N)nc3C)cs2)cc1` [Compound 3, 1-(4-((2'-amino-4'-methyl-[4,5'-bithiazol]-2-yl)amino)phenyl)ethan-1-one], the IC50 on human topo IIα was determined as 222 µM. The “solubility in the cell growth media” value in data set [1] was “low solubility”.

In the case of `Cc1cc(NS(=O)(=O)c2ccc(Nc3nc(-c4sc(N)nc4C)cs3)cc2)no1` [Compound 4, 4-((2'-amino-4'-methyl-[4,5'-bithiazol]-2-yl)amino)-N-(5-methylisoxazol-3-yl)benzenesulfonamide], the IC50 on human topo IIα was determined as 30.1 µM.

`Cc1nc(N)sc1-c1csc(Nc2ccc(S(N)(=O)=O)cc2)n1` [Compound 5, 4-((2'-amino-4'-methyl-[4,5'-bithiazol]-2-yl)amino)benzenesulfonamide] yielded an IC50 against human topo IIα of 70.1 µM.

In the case of `Cc1nc(N)sc1-c1csc(Nc2ccc(C(=O)O)c(O)c2)n1` [Compound 6, 4-((2'-amino-4'-methyl-[4,5'-bithiazol]-2-yl)amino)-2-hydroxybenzoic acid], the “effect on the tested cell lines” value with MCF-7 cells and in the data set with HepG2 cells was “little or no effect” in each case. Besides, the IC50 against human topo IIα stood at 37.7 µM.

The EC50 is the concentration at which the effect is half-maximal. Regarding `CC(=O)Nc1nc(C)c(-c2csc(Nc3cccc(O)c3)n2)s1` [Compound 7, N-(2-((3-hydroxyphenyl)amino)-4'-methyl-[4,5'-bithiazol]-2'-yl)acetamide], the EC50 with MCF-7 cells (setting [2]) is 12.3 µM; with MCF-7 cells (setting [3]) it was 6.6 µM; in the data set with HepG2 cells (setting [4]) it was 45.6 µM; in the data set with HepG2 cells (setting [5]), 32.3 µM. Further, on human topo IIα, half-maximal inhibition (IC50) was put at 33.7 µM.

Take `CC(=O)Nc1nc(C)c(-c2csc(Nc3ccc(C(=O)O)cc3)n2)s1` [Compound 8, 4-((2'-acetamido-4'-methyl-[4,5'-bithiazol]-2-yl)amino)benzoic acid]: the “effect on the tested cell lines” value with MCF-7 cells and in the data set with HepG2 cells was “little or no effect” throughout. This molecule came in with an IC50 on human topo IIα of 120 µM.

In the case of `COc1ccc(Nc2nc(-c3sc(NC(C)=O)nc3C)cs2)cc1` [Compound 10, N-(2-((4-methoxyphenyl)amino)-4'-methyl-[4,5'-bithiazol]-2'-yl)acetamide], the EC50 in the data set on MCF-7 cells (setting [2]) was found to be 16.4 µM; in the data set on MCF-7 cells (setting [3]) it was 4.5 µM; in the data set on HepG2 cells (setting [4]) it was 34.7 µM; in the data set with HepG2 cells (setting [5]) it was 14.6 µM. Besides, the midpoint of inhibition against human topo IIα, the IC50, lay at 22.7 µM.

Take `CC(=O)Nc1nc(C)c(-c2csc(Nc3cccc(C(=O)O)c3)n2)s1` [Compound 11, 3-((2'-acetamido-4'-methyl-[4,5'-bithiazol]-2-yl)amino)benzoic acid]: the “effect on the tested cell lines” value in the data set on MCF-7 cells and in the data set on HepG2 cells was “little or no effect” throughout. Besides, the IC50 against human topo IIα amounted to 134 µM.

On human topo IIα, `CC(=O)Nc1nc(C)c(-c2csc(Nc3ccc(O)cc3)n2)s1` [Compound 12, N-(2-((4-hydroxyphenyl)amino)-4'-methyl-[4,5'-bithiazol]-2'-yl)acetamide] came in with a concentration for half-maximal inhibition (IC50) of 193 µM.

In turn, `CCC(=O)Nc1nc(C)c(-c2csc(Nc3ccc(C(=O)O)cc3)n2)s1` [Compound 13, 4-((4'-methyl-2'-propionamido-[4,5'-bithiazol]-2-yl)amino)benzoic acid] came in with an IC50 against human topo IIα of 123 µM.

Consider `CC(=O)Nc1nc(C)c(-c2csc(Nc3ccccc3)n2)s1` [Compound 14, N-(4'-methyl-2-(phenylamino)-[4,5'-bithiazol]-2'-yl)acetamide], for which the EC50 is 32.3 µM with MCF-7 cells (setting [2]), 7.5 µM in the data set on MCF-7 cells (setting [3]), 47.7 µM with HepG2 cells (setting [4]) and 28.2 µM in the data set on HepG2 cells (setting [5]). This molecule displayed an IC50 against human topo IIα of 357 µM.

On human topo IIα, `Cc1nc(NC(=O)c2ccccc2)sc1-c1csc(Nc2ccc(C(=O)O)cc2)n1` [Compound 15, 4-((2'-benzamido-4'-methyl-[4,5'-bithiazol]-2-yl)amino)benzoic acid] showed a 50% inhibitory concentration (IC50) of 12.6 µM.
